pEC50, pIC50: −log10 of the molar value.
How the values were obtained:
[1] = test system: panel of multidrug-resistant HIV-1 strains; experiment: microbe, parasite or virus in culture; format: cell-based; conditions: for fold-changes in EC50: against all MDR HIV-1 viruses compared to wild type
HIV-1LAI = experiment: Antiviral MTT assay in MT-2 cells exposed to HIV-1LAI; format: cell-based; conditions: Human immunodeficiency virus 1, MT2

| SMILES | fold-changes in EC50 [1] | pEC50 ([1]; Human immunodeficiency virus 1) | pIC50 (HIV-1LAI) |
| --- | --- | --- | --- |
| COC(=O)N[C@@H]1CO[C@@H]2C[C@H](OC(=O)N[C@@H](Cc3ccccc3)[C@H](O)CN(CC(C)C)S(=O)(=O)c3ccc(OC)cc3)C[C@H]12 [Inhibitor 3c] | < 3 | – | – |
| COC(=O)N[C@H]1CO[C@@H]2C[C@H](OC(=O)N[C@@H](Cc3ccccc3)[C@H](O)CN(CC(C)C)S(=O)(=O)c3ccc(OC)cc3)C[C@H]12 [Inhibitor 3d] | increased by a factor of at least three | 7.62 to 7.82 | – |
| CC(C)CN(C[C@@H](O)[C@H](Cc1ccccc1)NC(=O)O[C@H]1CCOC1)S(=O)(=O)c1ccc(N)cc1 [amprenavir] | – | – | 7.52 |
